# Test system: not listed separately
# Test: Cytotoxicity against mouse LLC cells
# Type: functional, cell-based
# Conditions: Lewis lung carcinoma, read-out: ED50 (the source's name)
row,SMILES,EC50
1,C[C@H](CC[C@H](O)C(C)(C)O)[C@H]1CC[C@@]2(C)C3=C(CC[C@]12C)[C@@]1(C)CCC(=O)C(C)(C)[C@@H]1CC3=O [LUCIDUMOL A],2.3 µg/mL
2,C[C@H](CC[C@H](O)[C@](C)(O)CO)[C@H]1CC[C@@]2(C)C3=CC[C@H]4C(C)(C)C(=O)CC[C@]4(C)C3=CC[C@]12C [GANODERMANONTRIOL],2.3 µg/mL
3,C/C(=C\[C@@H](O)C[C@@H](C)[C@H]1CC(=O)[C@@]2(C)C3=C(C(=O)[C@@H](O)[C@]12C)[C@@]1(C)CC[C@H](O)C(C)(C)[C@@H]1CC3=O)C(=O)O [GANODERIC ACID THETA],2.3 µg/mL
4,C[C@H](CC[C@@H](O)C(C)(C)O)[C@H]1CC[C@@]2(C)C3=CC[C@H]4C(C)(C)C(=O)CC[C@]4(C)C3=CC[C@]12C [GANODERMANONDIOL],2.3 µg/mL

# Species on record: Mus musculus
# Test: Inhibition of TPA-induced tumor progression in mouse skin at 0.2 umol measured at week 20
# Type: functional
# Conditions: not given
row,SMILES,inhibition (INH)
1,C=C(C)[C@@H]1CC=C2C(=CC[C@]3(C)[C@@H]([C@@H](CCC=C(C)C)C(=O)O)[C@H](O)C[C@@]23C)[C@@]1(C)CCC(=O)O [PORICOIC ACID B],68%

# Test system: L1210
# Test: Cytotoxicity against mouse L1210 cells
# Type: functional, cell-based
# Conditions: not given
row,SMILES,IC50
1,CC(C)=CCC[C@@H](C(=O)O)[C@H]1CC[C@@]2(C)C3=C(CC[C@]12C)[C@@]1(C)CC[C@H](O)C(C)(C)[C@@H]1CC3 [TRAMETENOLIC ACID],62.5 µM
2,CC(C)=CCC[C@@H](C=O)[C@H]1CC[C@@]2(C)C3=C(CC[C@]12C)[C@@]1(C)CC[C@H](O)C(C)(C)[C@@H]1CC3,34.4 µM

# Test system: HeLa
# Test: Cytotoxicity against human HeLa cells
# Type: functional, cell-based
# Conditions: Homo sapiens, HeLa
row,SMILES,IC50
1,C[C@H](CCC(=O)O)[C@H]1CC[C@@]2(C)C3=C(CC[C@]12C)[C@@]1(C)CCC(=O)C(C)(C)[C@@H]1CC3=O,11 µM
2,C/C(=C\C(=O)CC(C)C(=O)O)[C@H]1CC(=O)[C@@]2(C)C3=C(C(=O)C[C@]12C)[C@@]1(C)CC[C@H](O)C(C)(C)[C@@H]1C[C@@H]3O (stereo partly drawn) [GANODERENIC ACID B],202 µM
3,C/C(=C\C(=O)CC(C)C(=O)O)[C@H]1CC(=O)[C@@]2(C)C3=C(C(=O)C[C@]12C)[C@@]1(C)CCC(=O)C(C)(C)[C@@H]1CC3=O (stereo partly drawn) [GANODERENICACID F],202 µM
4,CC(CC(=O)C[C@@H](C)[C@H]1CC(=O)[C@@]2(C)C3=C(C(=O)C[C@]12C)[C@@]1(C)CC[C@H](O)C(C)(C)[C@@H]1CC3=O)C(=O)O (stereo partly drawn) [GANODERIC ACID AM1],202 µM
5,CC(=O)O[C@@H]1C(=O)C2=C(C(=O)C[C@H]3C(C)(C)[C@@H](O)CC[C@]23C)[C@]2(C)C(=O)C[C@H]([C@H](C)CC(=O)CC(C)C(=O)O)[C@@]12C (stereo partly drawn) [GANODERIC ACID H],> 300 µM
6,CC(CC(=O)C[C@@H](C)[C@H]1C[C@H](O)[C@@]2(C)C3=C(C(=O)C[C@]12C)[C@@]1(C)CC[C@H](O)C(C)(C)[C@@H]1C[C@@H]3O)C(=O)O (stereo partly drawn),101 µM
7,COC(=O)[C@H](C)CC(=O)C[C@@H](C)[C@H]1CC(=O)[C@@]2(C)C3=C(C(=O)C[C@]12C)[C@@]1(C)CC[C@H](O)C(C)(C)[C@@H]1C[C@@H]3O [GANODERIC ACID B METHYL ESTER],101 µM
8,CC(=O)[C@H]1CC(=O)[C@@]2(C)C3=C(C(=O)C[C@]12C)[C@@]1(C)CC[C@H](O)C(C)(C)[C@@H]1C[C@@H]3O [LUCIDONE A],101 µM
9,C[C@H](CC(=O)C[C@@H](C)[C@H]1CC(=O)[C@@]2(C)C3=C(C(=O)C[C@]12C)[C@@]1(C)CCC(=O)C(C)(C)[C@@H]1CC3=O)C(=O)O [GANODERIC ACID E],101 µM
10,CCOC(=O)C(C)CC(=O)C[C@@H](C)[C@H]1CC(=O)[C@@]2(C)C3=C(C(=O)[C@@H](OC(C)=O)[C@]12C)[C@@]1(C)CCC(=O)C(C)(C)[C@@H]1CC3=O (stereo partly drawn),11 µM
11,C/C(=C\CC[C@@H](C)[C@H]1CC[C@@]2(C)C3=C(CC[C@]12C)[C@@]1(C)CC[C@H](O)C(C)(C)[C@@H]1CC3=O)CO [LUCIDADIOL],5 µM
12,CC(CC(=O)C[C@@H](C)[C@H]1CC(=O)[C@@]2(C)C3=C(C(=O)[C@@H](O)[C@]12C)[C@@]1(C)CCC(=O)C(C)(C)[C@@H]1C[C@@H]3O)C(=O)O (stereo partly drawn),> 300 µM
13,CC(CC(=O)C[C@@H](C)[C@H]1C[C@H](O)[C@@]2(C)C3=C(C(=O)C[C@]12C)[C@@]1(C)CCC(=O)C(C)(C)[C@@H]1CC3=O)C(=O)O (stereo partly drawn) [GANODERIC ACID J],> 300 µM
14,CC(=O)OC1C[C@H]([C@H](C)CC/C=C(/C)C(=O)O)[C@@]2(C)CC=C3C(=CC[C@H]4C(C)(C)C(=O)CC[C@]34C)[C@]12C (stereo partly drawn),> 300 µM
15,C[C@H](CC[C@H](O)C(C)(C)O)[C@H]1CC[C@@]2(C)C3=C(CC[C@]12C)[C@@]1(C)CCC(=O)C(C)(C)[C@@H]1CC3=O [LUCIDUMOL A],11 µM
16,C[C@H](CCC(=O)O)[C@H]1CC(=O)[C@@]2(C)C3=C(C(=O)C[C@]12C)[C@@]1(C)CCC(=O)C(C)(C)[C@@H]1C[C@@H]3O [LUCIDENIC ACID A],> 300 µM
17,C[C@H](CC(=O)C[C@@H](C)[C@H]1C[C@H](O)[C@@]2(C)C3=C(C(=O)C[C@]12C)[C@@]1(C)CCC(=O)C(C)(C)[C@@H]1C[C@@H]3O)C(=O)O [GANODERIC ACID A],> 300 µM
18,C/C(=C\CC[C@@H](C)[C@H]1CC[C@@]2(C)C3=C([C@@H](O)C[C@]12C)[C@@]1(C)CCC(=O)C(C)(C)[C@@H]1CC3=O)C(=O)O,11 µM
19,CC(=O)O[C@@H]1C(=O)C2=C([C@@H](O)C[C@H]3C(C)(C)C(=O)CC[C@]23C)[C@]2(C)C(=O)C[C@H](/C(C)=C\C(=O)CC(C)C(=O)O)[C@@]12C (stereo partly drawn),> 300 µM

row,SMILES,IC50
1,C/C(=C\CC[C@@H](C)[C@H]1CC[C@@]2(C)C3=C(CC[C@]12C)[C@@]1(C)CC[C@H](O)C(C)(C)[C@@H]1CC3=O)C(=O)O,> 300 µM
2,C[C@H](CC[C@H](O)[C@](C)(O)CO)[C@H]1CC[C@@]2(C)C3=CC[C@H]4C(C)(C)C(=O)CC[C@]4(C)C3=CC[C@]12C [GANODERMANONTRIOL],11 µM
3,CC(CC(=O)C[C@@H](C)[C@H]1CC(=O)[C@@]2(C)C3=C(C(=O)C[C@]12C)[C@@]1(C)CC[C@H](O)C(C)(C)[C@@H]1C[C@@H]3O)C(=O)O (stereo partly drawn) [GANODERIC ACID B],202 µM
4,CC(CC(=O)C[C@@H](C)[C@H]1CC(=O)[C@@]2(C)C3=C(C(=O)[C@@H](O)[C@]12C)[C@@]1(C)CC[C@H](O)C(C)(C)[C@@H]1C[C@@H]3O)C(=O)O (stereo partly drawn) [GANODERIC ACID G],101 µM
5,CC(CC(=O)C[C@@H](C)[C@H]1CC(=O)[C@@]2(C)C3=C(C(=O)[C@@H](O)[C@]12C)[C@@]1(C)CCC(=O)C(C)(C)[C@@H]1CC3=O)C(=O)O (stereo partly drawn),> 300 µM
6,C/C(=C\CC[C@@H](C)[C@H]1C[C@H](O)[C@@]2(C)C3=CC[C@H]4C(C)(C)C(=O)CC[C@]4(C)C3=CC[C@]12C)C(=O)O,11 µM
7,CC(=O)O[C@@H]1C(=O)C2=C([C@@H](O)C[C@H]3C(C)(C)[C@@H](O)CC[C@]23C)[C@]2(C)C(=O)C[C@H]([C@H](C)CC(=O)CC(C)C(=O)O)[C@@]12C (stereo partly drawn) [GANODERIC ACID K],> 300 µM
8,C/C(=C\CC[C@@H](C)[C@H]1CC[C@@]2(C)C3=C([C@H](O)C[C@]12C)[C@@]1(C)CCC(=O)C(C)(C)[C@@H]1CC3=O)C(=O)O,101 µM
9,CC(=O)O[C@@H]1C(=O)C2=C([C@@H](O)C[C@H]3C(C)(C)[C@@H](O)CC[C@]23C)[C@]2(C)C(=O)C[C@H](/C(C)=C\C(=O)CC(C)C(=O)O)[C@@]12C (stereo partly drawn),101 µM
10,CC(CC(=O)C[C@@H](C)[C@H]1C[C@H](O)[C@@]2(C)C3=C(C(=O)C[C@]12C)[C@@]1(C)CCC(=O)C(C)(C)[C@@H]1CC3)C(=O)O (stereo partly drawn) [GANOLUCIDIC ACID A],101 µM
11,COC(=O)CC[C@@H](C)[C@H]1CC(=O)[C@@]2(C)C3=C(C(=O)[C@@H](O)[C@]12C)[C@@]1(C)CC[C@H](O)C(C)(C)[C@@H]1C[C@@H]3O [METHYL LUCIDENATE C],101 µM
12,COC(=O)C(C)CC(=O)C[C@@H](C)[C@H]1CC(=O)[C@@]2(C)C3=C(C(=O)[C@@H](OC(C)=O)[C@]12C)[C@@]1(C)CC[C@H](O)C(C)(C)[C@@H]1CC3=O (stereo partly drawn) [METHYL GANODERATE H],11 µM
13,C[C@H](CC[C@@H](O)C(C)(C)O)[C@H]1CC[C@@]2(C)C3=CC[C@H]4C(C)(C)C(=O)CC[C@]4(C)C3=CC[C@]12C [GANODERMANONDIOL],11 µM
14,C/C(=C\C(=O)CC(C)C(=O)O)[C@H]1C[C@H](O)[C@@]2(C)C3=C(C(=O)C[C@]12C)[C@@]1(C)CCC(=O)C(C)(C)[C@@H]1C[C@@H]3O (stereo partly drawn) [GANODERENIC ACID A],> 300 µM
15,C/C(=C\CC[C@@H](C)[C@H]1CC[C@@]2(C)C3=CC[C@H]4C(C)(C)[C@@H](O)CC[C@]4(C)C3=CC[C@]12C)C(=O)O [GANODERIC ACID Y],11 µM
16,C/C(=C\CC[C@@H](C)[C@H]1CC[C@@]2(C)C3=CC[C@H]4C(C)(C)[C@@H](O)CC[C@]4(C)C3=CC[C@]12C)CO [GANODEROL B],101 µM
17,C/C(=C\CC[C@@H](C)[C@H]1C[C@H](O)[C@@]2(C)C3=C(C(=O)C[C@]12C)[C@@]1(C)CCC(=O)C(C)(C)[C@@H]1CC3)C(=O)O [GANOLUCIDIC ACID E],11 µM
18,COC(=O)C(C)CC(=O)C[C@@H](C)[C@H]1CC(=O)[C@@]2(C)C3=C(C(=O)[C@@H](OC(C)=O)[C@]12C)[C@@]1(C)CC[C@H](O)C(C)(C)[C@@H]1C[C@@H]3O (stereo partly drawn),101 µM
19,CC(=O)O[C@@H]1C(=O)C2=C(C(=O)C[C@H]3C(C)(C)C(=O)CC[C@]23C)[C@]2(C)C(=O)C[C@H]([C@H](C)CC(=O)CC(C)C(=O)O)[C@@]12C (stereo partly drawn) [GANODERIC ACID F],> 300 µM

# Same assay, conditions: hela
row,SMILES,IC50
1,CC(CC(=O)C[C@@H](C)[C@H]1CC(=O)[C@@]2(C)C3=C(C(=O)C[C@]12C)[C@@]1(C)CCC(=O)C(C)(C)[C@@H]1C[C@@H]3O)C(=O)O (stereo in doubt; 10) [GANODERIC ACID D],31 µM
2,CC(CC(=O)C[C@@H](C)[C@H]1CC(=O)[C@@]2(C)C3=C(C(=O)C[C@]12C)[C@@]1(C)CCC(=O)C(C)(C)[C@@H]1C[C@@H]3O)C(=O)O (stereo in doubt; 81) [GANODERIC ACID D],> 300 µM

# Test system: not listed separately
# Test: Cytotoxicity against mouse Meth-A cells
# Type: functional, cell-based
# Conditions: read-out: ED50 (the source's name)
row,SMILES,EC50
1,C[C@H](CC[C@H](O)C(C)(C)O)[C@H]1CC[C@@]2(C)C3=C(CC[C@]12C)[C@@]1(C)CCC(=O)C(C)(C)[C@@H]1CC3=O [LUCIDUMOL A],2.3 µg/mL
2,C[C@H](CC[C@H](O)[C@](C)(O)CO)[C@H]1CC[C@@]2(C)C3=CC[C@H]4C(C)(C)C(=O)CC[C@]4(C)C3=CC[C@]12C [GANODERMANONTRIOL],2.3 µg/mL
3,C/C(=C\[C@@H](O)C[C@@H](C)[C@H]1CC(=O)[C@@]2(C)C3=C(C(=O)[C@@H](O)[C@]12C)[C@@]1(C)CC[C@H](O)C(C)(C)[C@@H]1CC3=O)C(=O)O [GANODERIC ACID THETA],2.3 µg/mL
4,C[C@H](CC[C@@H](O)C(C)(C)O)[C@H]1CC[C@@]2(C)C3=CC[C@H]4C(C)(C)C(=O)CC[C@]4(C)C3=CC[C@]12C [GANODERMANONDIOL],3.4 µg/mL

# Test system: HL-60
# Test: Cytotoxicity against human HL60 cells
# Type: functional, cell-based
# Conditions: not given
SMILES,GI50,IC50
C=C(C)[C@@H]1CCC2=C(CC[C@]3(C)[C@@H]([C@@H](CCC=C(C)C)C(=O)O)[C@H](O)C[C@@]23C)[C@@]1(C)CCC(=O)O [PORICOIC ACID G],0.0393 µM,–
CC(=O)O[C@H]1CC[C@]2(C)C3=C(CC[C@H]2C1(C)C)[C@]1(C)CC[C@H]([C@@H](CCC=C(C)C)C(=O)O)[C@@]1(C)CC3 [ACETYL TRAMETENOLIC ACID],–,25 µM
